Values joined by “and” are separate entries in the source; they are usually repeats but may differ in a detail not shown here. Identical values can stand only once.
How the values were obtained:
Assay type in all cases: cell-based
MRGPRX4 R82A = target: T1, MRGPRX4 R82A (Homo sapiens, UniProt Q96LA9, L83S/R82A); assay: Calcium mobilization assay (FLIPR), MRGPRX4 R82A mutant
T1 construct: expressed in transfected cells; host or cells: HEK293T, transient
From the text: (§1) Fig. 3. […] (A) Cryo-EM density map of MRGPRX4-Gq in complex with fospropofol. (B) The density map of fospropofol and R82 of MRGPRX4. (C and D) Key molecular interactions between fospropofol and the hydrophilic (C) and hydrophobic (D) part of the agonist binding pocket of MRGPRX4. Amino acid residues interacting with fospropofol are shown as sticks. Hydrogen bond is shown as cyan dashed lines. […] Data are from at least three independent experiments, each performed in triplicate, and reported as the mean ± SEM. (E) and (F) were collected from the same sets of experiments.
(§2) To generate murine Mrgprs expressing cells, HEK293T cells (ATCC) were seeded on poly-D-lysine coated 96 well plate at 25,000 cells per well one day prior to transfection. HEK293T cells were transiently co-transfected with the mammalian expression plasmids carrying cDNA encoding the murine Mrgpr genes and plasmid inserted with cDNA encoding murine α-subunit of the heterotrimeric G15 protein (Gα15) in triplicates using Lipofectamine LTX reagents (Thermo Scientific). To generate WT, S83L, and alanine mutant MRGPRX4-expressing cells, HEK293T cells were seeded on poly-D-lysine coated 384 well plate at 12,000 cells per well one day prior to transfection. […]

MRGPRX4 R86A = target: T2, MRGPRX4 R86A (Homo sapiens, UniProt Q96LA9, L83S/R86A); assay: Calcium mobilization assay (FLIPR), MRGPRX4 R86A mutant
T2 construct: expressed in transfected cells; host or cells: HEK293T, transient
T2 sequence (Q96LA9 whole entry L83S/R86A): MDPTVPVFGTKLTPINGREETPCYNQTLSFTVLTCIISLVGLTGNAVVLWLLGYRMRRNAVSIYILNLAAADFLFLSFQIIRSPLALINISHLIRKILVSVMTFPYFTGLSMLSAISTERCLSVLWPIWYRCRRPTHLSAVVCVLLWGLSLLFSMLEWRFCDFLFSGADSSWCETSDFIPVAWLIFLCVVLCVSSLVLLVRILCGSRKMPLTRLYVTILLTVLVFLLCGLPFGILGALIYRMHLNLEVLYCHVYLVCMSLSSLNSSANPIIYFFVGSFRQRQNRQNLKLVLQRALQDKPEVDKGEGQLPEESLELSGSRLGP
From the text: as §1, §2

mock [1] = assay: Calcium mobilization assay (FLIPR), mock-transfected control cells (Fig. 3E and 3F)
mock [2] = assay: Calcium mobilization assay (FLIPR), mock-transfected cells (Fig. 3E and 3F)

T1 sequence (Q96LA9 whole entry R82A/L83S): as the sequence (Q96LA9 whole entry L83S/R86A) above, with R82A, A86R counted along it

SMILES: O=C1NC(c2ccccc2)(c2ccccc2)C(=O)N1COP(=O)(O)O [Fosphenytoin]
- Calcium mobilization response at alanine mutant R82A vs WT (MRGPRX4 R82A): either greatly attenuated or abolished
- Calcium mobilization response at alanine mutant R86A vs WT (MRGPRX4 R86A): either greatly attenuated or abolished
- Calcium mobilization response, dose-response replicate data (Fig. 3E and 3F) (mock [1]; concentration 188 pM): 2.751 and 6.052 and -2.532
- Calcium mobilization response, dose-response replicate data (Fig. 3E and 3F) (mock [1]; concentration 565 pM): 4.071 and -5.503 and 12.3245
- Calcium mobilization response, dose-response replicate data (Fig. 3E and 3F) (mock [1]; concentration 1.69e-9 M): 4.071 and 3.081 and -1.212
- Calcium mobilization response, dose-response replicate data (Fig. 3E and 3F) (mock [1]; concentration 5.08e-9 M): 3.411 and -2.202
- Calcium mobilization response, dose-response replicate data (Fig. 3E and 3F) (mock [1]; concentration 1.52e-8 M): -1.542 and -1.212 and -3.853
- Calcium mobilization response, dose-response replicate data (Fig. 3E and 3F) (mock [1]; concentration 4.57e-8 M): -2.532 and -6.494 and 5.722
- Calcium mobilization response, dose-response replicate data (Fig. 3E and 3F) (mock [1]; concentration 1.37e-7 M): -8.474 and 2.091 and 3.411
- Calcium mobilization response, dose-response replicate data (Fig. 3E and 3F) (mock [1]; concentration 4.12e-7 M): -2.202 and -3.522 and -0.2212
- Calcium mobilization response, dose-response replicate data (Fig. 3E and 3F) (mock [1]; concentration 1.23e-6 M): -8.474 and -1.212 and -3.1923
- Calcium mobilization response, dose-response replicate data (Fig. 3E and 3F) (mock [1]; concentration 3.7e-6 M): -6.824 and 3.081 and 0.4401
- Calcium mobilization response, dose-response replicate data (Fig. 3E and 3F) (mock [1]; concentration 1.11e-5 M): -13.7563 and -1.212 and 1.1003
- Calcium mobilization response, dose-response replicate data (Fig. 3E and 3F) (mock [1]; concentration 3.33e-5 M): -14.4165 and -16.3972 and -5.173
- Calcium mobilization response, dose-response replicate data (Fig. 3E and 3F) (mock [1]; concentration 0.0001 M): -29.6022 and -24.6503 and -24.9805

SMILES: CC(C)c1cccc(C(C)C)c1OCOP(=O)(O)O [Fospropofol]
- Calcium mobilization response at alanine mutant R82A vs WT (MRGPRX4 R82A): either greatly attenuated or abolished
- Calcium mobilization response at alanine mutant R86A vs WT (MRGPRX4 R86A): either greatly attenuated or abolished
- calcium mobilization response (Fig. 3E and 3F dose-response) (mock [2]; 5.08e-9 M): 10.7608 and 18.8313 and 12.7088
- calcium mobilization response (Fig. 3E and 3F dose-response) (mock [2]; 1.37e-7 M): 17.7181 and 25.7886 and 28.015
- calcium mobilization response (Fig. 3E and 3F dose-response) (mock [2]; 4.12e-7 M): 16.3266 and 13.822 and 21.6142
- calcium mobilization response (Fig. 3E and 3F dose-response) (mock [2]; 1.23e-6 M): 32.4677 and 38.8684 and 39.425
- calcium mobilization response (Fig. 3E and 3F dose-response) (mock [2]; 3.7e-6 M): 22.4491 and 40.2599 and 25.232
- calcium mobilization response (Fig. 3E and 3F dose-response) (mock [2]; 1.11e-5 M): 30.7979 and 29.963 and 39.7033
- calcium mobilization response (Fig. 3E and 3F dose-response) (mock [2]; 3.33e-5 M): 34.1374 and 32.1894 and 41.0947
- calcium mobilization response (Fig. 3E and 3F dose-response) (mock [2]; 0.0001 M): 28.2933 and 31.0762 and 40.2599

Source: article PMC11645656, “MRGPRX4 mediates phospho-drug associated pruritus in a humanized mouse model” (Science translational medicine, 2024)
